pIC50: −log10 of the molar value. Values joined by “and” are separate entries in the source; they are usually repeats but may differ in a detail not shown here. Identical values can stand only once.

The source of these data is patent US20250214942A1, “INHIBITORS OF RECEPTOR INTERACTING PROTEIN KINASE I FOR THE TREATMENT OF DISEASE” (Board of Regents, The University of Texas System, priority 2019, published 2025).

Chain of RIPK1 (Q13546 1-327): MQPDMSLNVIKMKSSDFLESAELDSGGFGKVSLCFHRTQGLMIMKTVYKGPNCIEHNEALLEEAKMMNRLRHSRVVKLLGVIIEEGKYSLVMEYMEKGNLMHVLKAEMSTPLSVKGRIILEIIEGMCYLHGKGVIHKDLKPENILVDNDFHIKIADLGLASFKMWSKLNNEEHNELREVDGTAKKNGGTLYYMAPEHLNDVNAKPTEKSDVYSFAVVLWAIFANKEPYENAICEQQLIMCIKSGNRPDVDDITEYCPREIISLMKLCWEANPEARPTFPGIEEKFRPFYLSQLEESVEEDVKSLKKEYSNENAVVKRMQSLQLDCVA

One test concerns the target RIPK1 (Homo sapiens (Human), UniProt Q13546). The test can be described thus: ADP-Glo kinase assay (RIPK1 activity, conversion of ATP to ADP). The class given is biochemical. The following applies: 5 nM RIPK1, 50 μM ATP, 6 h reaction; footnote symbol (a); read-out: RIPK1 Enzyme Avg IC50. The protocol: In order to measure RIPK1 activity the ADP-Glo kinase assay (Promega, Catalog #V7002) was used to measure the conversion of ATP to ADP. This enzymatic assay was performed in a 384-well white, Optiplate (Perkin Elmer, Catalog #6007299) with assay buffer consisting of 50 mM HEPES pH 7.5 (Gibco, Catalog #15630-080), 50 mM NaCl (Teknova, Catalog #S0252), 30 mM MgCl2 (Ambion, Catalog #AM9530G), 1 mM DTT (Santa Cruz Biotechnology, Catalog #sc-29089), 0.05% BSA (Sigma, Catalog #A3059-50G) and 0.02% CHAPS (Sigma, Catalog #C5070-5G). Stock solutions of the test compounds were prepared in 100% DMSO (Sigma, Catalog #D2650) and serially diluted 1:3 using 100% DMSO. Compounds were additionally diluted 1:40 in assay buffer, and 2 μL/well were transferred to the assay plate. 4 μL/well (final concentration of 5 nM) of RIPK1 protein (SignalChem, Catalog #R07-1IG-05) diluted in assay buffer and added to the assay plate followed by a 10 minute preincutation at rt. 4 μL/well of ATP (Promega, Catalog #V7002) (final concentration of 50 μM) diluted in assay buffer were then added to the assay plate followed by a 6 h reaction time. Final concentrations of RIPK1 and ATP refer to a 10 μL volume. Luminescence was measured using a BioTek Synergy™ NEO plate reader. IC50 values were calculated using a four-parameter logistic curve fit using Genedata Screener software.
In general terms: ADP-Glo first removes unused ATP, then detects ADP through luciferase.
A word on the pIC50: it is the IC50 on a negative log10 scale, so that one unit is a factor of ten. `COC(=O)C12CC(C(=O)N[C@@H](C)c3cc(F)cc(F)c3)(C1)C2` [Example 115, methyl (S)-3-((1-(3,5-difluorophenyl)ethyl)-carbamoyl)bicyclo[1.1.1]-pentane-1-carboxylate]: the pIC50 was < 4.30.

Regarding `Cc1cccc(C2CCCN2C(=O)C23CC(O)(C2)C3)c1` (stereo not drawn) [Example 120, (3-hydroxybicyclo[1.1.1]-pentan-1-yl)(2-(m-tolyl)-pyrrolidin-1-yl)methanone], the pIC50 was < 4.30.

`C[C@H](NC(=O)C12CC(CO)(C1)C2)c1cc(F)cc(F)c1` [Example 90, (S)-N-(1-(3,5-difluoro-phenyl)ethyl)-3-(hydroxymethyl)-bicyclo[1.1.1]pentane-1-carboxamide]: the pIC50 was < 4.30.

As for `O=C(N1CC[C@@H](Oc2cc(F)ccc2F)C1)C12CC(CO)(C1)C2` [Example 38, (R)-(3-(2,5-Difluorophenoxy)pyrrolidin-1-yl)(3-(hydroxymethyl)-bicyclo[1.1.1]pentan-1-yl)methanone], the pIC50 was < 4.30.

As for `CC(=O)NC12CC(C(=O)N3CCCC3c3cccc(C)c3)(C1)C2` (stereo not drawn) [Example 119, N-(3-(2-(m-tolyl)pyrrolidine-1-carbonyl)bicyclo[1.1.1]-pentan-1-yl)acetamide], the pIC50 is < 4.30.

The test is the same for the next values; noted with them: 5 nM RIPK1, 50 μM ATP, 6 h reaction; read-out: RIPK1 Enzyme Avg IC50.
For the molecule `O=C(N1N=CCC1c1cc(F)cc(F)c1)C12CC(Cn3ncc4c(F)cncc43)(C1)C2` (stereo not drawn) [Example 15, (5-(3,5-Difluorophenyl)-4,5-dihydro-1H-pyrazol-1-yl)(3-((4-fluoro-1H-pyrazolo[3,4-c]-pyridin-1-yl)methyl)bicyclo[1.1.1]pentan-1-yl)methanone], the pIC50 is 7.66.

Take `C[C@H](NC(=O)C12CC(COc3cc(C#N)ncn3)(C1)C2)c1cc(F)cc(F)c1` [Example 102, (S)-3-(((6-cyanopyrimidin-4-yl)oxy)methyl)-N-(1-(3,5-difluorophenyl)ethyl)-bicyclo[1.1.1]pentane-1-carboxamide]: the pIC50 is 5.70.

On to `CS(=O)(=O)C1CN(CC23CC(C(=O)N4N=CCC4c4cc(F)cc(F)c4)(C2)C3)C1` (stereo not drawn) [Example 80, (5-(3,5-difluorophenyl)-4,5-dihydro-1H-pyrazol-1-yl)(3-((3-(methylsulfonyl)azetidin-1-yl)methyl)bicyclo[1.1.1]-pentan-1-yl)methanone], for which the pIC50 was 4.61.

As for `N#Cc1cnn(CC23CC(C(=O)N4CC(F)CC4c4cccc(F)c4)(C2)C3)c1` (stereo not drawn) [Example 33, 1-((3-(4-Fluoro-2-(3-fluorophenyl)pyrrolidine-1-carbonyl)-bicyclo[1.1.1]pentan-1-yl)methyl)-1H-pyrazole-4-carbonitrile], the pIC50 is 6.33.

Consider `N#Cc1cncc(OCC23CC(C(=O)N4CC(F)CC4c4cccc(F)c4)(C2)C3)n1` (stereo not drawn) [Example 96, 6-((3-(4-fluoro-2-(3-fluoro-phenyl)pyrrolidine-1-carbonyl)bicyclo[1.1.1]-pentan-1-yl)methoxy)-pyrazine-2-carbonitrile], for which the pIC50 is 6.79.

On to `N#Cc1cc(OCC23CC(C(=O)N4CC(F)CC4c4cccc(F)c4)(C2)C3)ccn1` (stereo not drawn) [Example 99, 4-((3-(4-fluoro-2-(3-fluorophenyl)pyrrolidine-1-carbonyl)bicyclo[1.1.1]-pentan-1-yl)methoxy)-picolinonitrile], for which the pIC50 was 6.55.

For the molecule `N#Cc1ccc2c(cnn2CC23CC(C(=O)N4N=CCC4c4cc(F)ccc4F)(C2)C3)c1` (stereo not drawn) [Example 53, 1-((3-(5-(2,5-difluorophenyl)-4,5-dihydro-1H-pyrazole-1-carbonyl)-bicyclo[1.1.1]pentan-1-yl)methyl)-1H-indazole-5-carbonitrile], the pIC50 is 7.62.

Regarding `COC(=O)C12CC(C(=O)N3CC(F)CC3c3cccc(F)c3)(C1)C2` (stereo not drawn) [Example 34, Methyl 3-(4-fluoro-2-(3-fluorophenyl)pyrrolidine-1-carbonyl)-bicyclo[1.1.1]pentane-1-carboxylate], the pIC50 is 5.97.

Consider `O=C(N1CC(F)CC1c1cccc(F)c1)C12CC(COc3ncc(F)cn3)(C1)C2` (stereo not drawn) [Example 97, (4-fluoro-2-(3-fluorophenyl)-pyrrolidin-1-yl)(3-(((5-fluoropyrimidin-2-yl)oxy)-methyl)bicyclo[1.1.1]pentan-1-yl)methanone], for which the pIC50 is 6.66.

Consider `NC(=O)c1cc(OCC23CC(C(=O)N4CC(F)CC4c4cccc(F)c4)(C2)C3)ncn1` (stereo not drawn) [Example 98, 6-((3-(4-fluoro-2-(3-fluorophenyl)pyrrolidine-1-carbonyl)bicyclo[1.1.1]-pentan-1-yl)methoxy)-pyrimidine-4-carboxamide], for which the pIC50 was 6.62.

Take `N#Cc1ccc2c(cnn2CC23CC(C(=O)N4N=CCC4c4cc(F)cc(F)c4)(C2)C3)n1` (stereo not drawn) [Example 179]: the pIC50 is 8.02.

Regarding `O=C(N1CCC(Oc2ccccc2)C1)C12CC(F)(C1)C2` (stereo not drawn) [Example 114, (3-fluorobicyclo[1.1.1]-pentan-1-yl)(3-phenoxypyrrolidin-1-yl)methanone], the pIC50 is < 4.78 and 5.05.

For `COCC12CC(C(=O)N3CC(F)CC3c3cccc(F)c3)(C1)C2` (stereo not drawn) [Example 35, (4-Fluoro-2-(3-fluorophenyl)pyrrolidin-1-yl)(3-(methoxymethyl)-bicyclo[1.1.1]pentan-1-yl)methanone], the negative logarithm of the IC50 (pIC50) is 5.33.

On to `N#Cc1cccc(OCC23CC(C(=O)N4CC(F)CC4c4cccc(F)c4)(C2)C3)c1` (stereo not drawn) [Example 107, 3-((3-(4-fluoro-2-(3-fluoro-phenyl)pyrrolidine-1-carbonyl)bicyclo[1.1.1]-pentan-1-yl)methoxy)-benzonitrile], for which the pIC50 is 6.74.

In the case of `O=C(N1N=CCC1c1cc(F)cc(F)c1)C12CC(Cc3nnn[nH]3)(C1)C2` (stereo not drawn) [Example 19, (3-((1H-tetrazol-5-yl)methyl)bicyclo[1.1.1]pentan-1-yl)(5-(3,5-difluorophenyl)-4,5-dihydro-1H-pyrazol-1-yl)methanone], the pIC50 was 6.44.

On to `O=C(N1N=CCC1c1cc(F)cc(F)c1)C12CC(Cn3cc(CO)nn3)(C1)C2` (stereo not drawn) [Example 150, (5-(3,5-difluorophenyl)-4,5-dihydro-1H-pyrazol-1-yl)(3-((4-(hydroxymethyl)-1H-1,2,3-triazol-1-yl)methyl)-bicyclo[1.1.1]pentan-1-yl)methanone], for which the pIC50 was 5.26.

For `O=C(N1N=CCC1c1cc(F)cc(F)c1)C12CC(CN3CC(c4ccccc4)C3)(C1)C2` (stereo not drawn) [Example 154, (5-(3,5-difluorophenyl)-4,5-dihydro-1H-pyrazol-1-yl)(3-((3-phenylazetidin-1-yl)-methyl)bicyclo[1.1.1]pentan-1-yl)methanone], the pIC50 was 5.31.

With `CCOC12CC(C(=O)N3N=CCC3c3ccccc3)(C1)C2` (stereo not drawn) [Example 46, (3-Ethoxybicyclo[1.1.1]pentan-1-yl)(5-phenyl-4,5-dihydro-1H-pyrazol-1-yl)methanone], the negative logarithm of the IC50 (pIC50) was 6.80.

On to `CNC(=O)C12CC(C(=O)N3N=CCC3c3cc(F)cc(F)c3)(C1)C2` (stereo not drawn) [Example 78, 3-(5-(3,5-difluorophenyl)-4,5-dihydro-1H-pyrazole-1-carbonyl)-N-methylbicyclo-[1.1.1]pentane-1-carboxamide], for which the pIC50 was 4.89.

Turning to `O=C(Nc1cc(Cl)ncn1)C12CC(C(=O)N3N=CCC3c3cc(F)cc(F)c3)(C1)C2` (stereo not drawn) [Example 76, N-(6-chloropyrimidin-4-yl)-3-(5-(3,5-difluorophenyl)-4,5-dihydro-1H-pyrazole-1-carbonyl)bicyclo[1.1.1]-pentane-1-carboxamide], the pIC50 was 5.27.

Consider `O=C(N1N=CCC1c1cc(F)cc(F)c1)C12CC(Cn3nc4ccccc4n3)(C1)C2` (stereo not drawn) [Example 86, (3-((2H-benzo[d][1,2,3]-triazol-2-yl)methyl)bicyclo-[1.1.1]pentan-1-yl)(5-(3,5-difluorophenyl)-4,5-dihydro-1H-pyrazol-1-yl)methanone], for which the pIC50 was 7.72.

`N#Cc1ccc2cnn(CC34CC(C(=O)N5N=CCC5c5cc(F)cc(F)c5)(C3)C4)c2c1` (stereo not drawn) [Example 66, 1-((3-(5-(3,5-difluorophenyl)-4,5-dihydro-1H-pyrazole-1-carbonyl)bicyclo[1.1.1]-pentan-1-yl)methyl)-1H-indazole-6-carbonitrile]: the negative-log IC50 (pIC50) is 7.80.

On to `NC(=O)c1ccnc(OCC23CC(C(=O)N4CC(F)CC4c4cccc(F)c4)(C2)C3)n1` (stereo not drawn) [Example 95, 2-((3-(4-fluoro-2-(3-fluoro-phenyl)pyrrolidine-1-carbonyl)bicyclo[1.1.1]-pentan-1-yl)methoxy)-pyrimidine-4-carboxamide], for which the pIC50 is 6.82.

Consider `COC(=O)C12CC(C(=O)N3N=CCC3c3cc(F)cc(F)c3)(C1)C2` (stereo not drawn) [Example 1, Methyl 3-(5-(3,5-difluorophenyl)-4,5-dihydro-1H-pyrazole-1-carbonyl)bicyclo[1.1.1]pentane-1-carboxylate], for which the pIC50 is 7.40.

On to `N#Cc1cccc(NC(=O)C23CC(C(=O)N4N=CCC4c4cc(F)cc(F)c4)(C2)C3)c1` (stereo not drawn) [Example 77, N-(3-cyanophenyl)-3-(5-(3,5-difluorophenyl)-4,5-dihydro-1H-pyrazole-1-carbonyl)-bicyclo[1.1.1]pentane-1-carboxamide], for which the pIC50 was 5.15.
